Our source for the IC50 values is US10774086B2, “GSK-3 inhibitors” (BRISTOL-MYERS SQUIBB COMPANY, priority 2016, dated 2020).

For one assay, the target named is GSK3β (Homo sapiens (Human), UniProt P49841). In words: GSK3β kinase assay (Caliper LabChip, fluoresceinated peptide substrate). It is filed as biochemical. The following applies: 250 pM enzyme, 20 uM ATP, 1.5 uM peptide, 20 hours room temperature; read-out: GSK3β IC50 (first value of GSK3β/GSK3α).
The target in a further assay is GSK3α (Homo sapiens (Human), UniProt P49840). Description: GSK3α kinase assay (Caliper LabChip, fluoresceinated peptide substrate). The following applies: 250 pM enzyme, 20 uM ATP, 1.5 uM peptide, 20 hours room temperature; read-out: GSK3α IC50 (second value of GSK3β/GSK3α). It is filed as biochemical. From the text:
IC50 values were derived by non-linear regression analysis.

The test system of a further assay is pTau. Description: pTau assay. It is filed as cell-based.

GSK3β, sequence (P49841 whole entry, species assumed): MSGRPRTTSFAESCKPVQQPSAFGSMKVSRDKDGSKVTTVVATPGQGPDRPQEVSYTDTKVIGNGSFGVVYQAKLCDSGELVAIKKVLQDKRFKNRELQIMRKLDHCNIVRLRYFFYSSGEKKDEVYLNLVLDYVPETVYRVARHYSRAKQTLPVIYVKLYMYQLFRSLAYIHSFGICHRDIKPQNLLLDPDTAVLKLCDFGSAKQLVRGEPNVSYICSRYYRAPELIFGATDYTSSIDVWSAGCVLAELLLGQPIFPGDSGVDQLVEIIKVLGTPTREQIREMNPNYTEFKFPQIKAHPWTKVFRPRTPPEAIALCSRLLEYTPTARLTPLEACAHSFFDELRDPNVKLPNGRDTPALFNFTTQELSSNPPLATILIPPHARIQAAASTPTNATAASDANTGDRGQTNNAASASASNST
GSK3α, sequence (P49840 whole entry, species assumed): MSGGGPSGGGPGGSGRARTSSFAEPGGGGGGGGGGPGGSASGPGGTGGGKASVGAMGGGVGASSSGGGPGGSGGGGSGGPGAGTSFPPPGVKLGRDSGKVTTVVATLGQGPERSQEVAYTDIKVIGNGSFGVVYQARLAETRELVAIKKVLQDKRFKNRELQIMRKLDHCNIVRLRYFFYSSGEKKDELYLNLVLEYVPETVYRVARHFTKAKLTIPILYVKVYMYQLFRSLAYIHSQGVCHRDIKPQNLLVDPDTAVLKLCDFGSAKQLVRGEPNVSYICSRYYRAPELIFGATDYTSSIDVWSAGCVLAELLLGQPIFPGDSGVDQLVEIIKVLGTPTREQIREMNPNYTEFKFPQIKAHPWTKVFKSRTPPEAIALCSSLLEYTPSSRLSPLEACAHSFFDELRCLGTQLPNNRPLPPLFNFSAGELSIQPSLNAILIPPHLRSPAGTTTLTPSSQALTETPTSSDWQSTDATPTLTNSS
Procedure for GSK3β: The kinase assay was performed in V-bottom 384-well plates. […] The reaction was incubated at room temperature for 20 hours and terminated by adding 45 μl of 35 mM EDTA to each sample. The reaction mixture was analyzed on the Caliper LabChip3000 (Caliper, Hopkinton, Mass.) by electrophoretic separation of the unphosphorylated substrate and phosphorylated product. […] Compounds were dissolved at 10 mM in dimethylsulfoxide (DMSO) and evaluated at eleven concentrations. IC50 values were derived by non-linear regression analysis.

As for `CC(C)Oc1ccncc1NC(=O)c1ccnn2c(NCC3CC3)cnc12` [Example 41, 3-((Cyclopropylmethyl)amino)-N-(4-isopropoxypyridin-3-yl)imidazo[1,2-b]pyridazine-8-carboxamide], the IC50 on GSK3β was 6.6 nM; at GSK3α, 3.4 nM; with pTau, 290 nM.

Turning to `O=C(Nc1cnccc1-c1ccc(F)cc1)c1ccnn2cc(C3=CCCCC3)nc12` [Example 33, 2-(Cyclohex-1-en-1-yl)-N-(4-(4-fluorophenyl)pyridin-3-yl)imidazo[1,2-b]pyridazine-8-carboxamide], the IC50 came out at 6.1 nM on GSK3β, 1.2 nM at GSK3α and 820 nM with pTau.

On to `O=C(Nc1cncnc1OCC(F)(F)F)c1ccnn2cc(-c3ccccc3)nc12` [Example 38, 2-Phenyl-N-(4-(2,2,2-trifluoroethoxy)pyrimidin-5-yl)imidazo[1,2-b]pyridazine-8-carboxamide], for which the IC50 amounted to 3.6 nM on GSK3β, 1 nM at GSK3α and 330 nM in the assay with pTau.

Consider `O=C(Nc1cnccc1N1CCC(F)(F)CC1)c1ccnn2cc(-c3ccccc3)nc12` [Example 12, N-(4-(4,4-Difluoropiperidin-1-yl)pyridin-3-yl)-2-phenylimidazo[1,2-b]pyridazine-8-carboxamide], for which the figures for the IC50 at GSK3β, at GSK3α and in the assay on pTau were 0.4 nM, 0.2 nM and 30 nM, respectively.

As for `O=C(Nc1cnccc1N1CCOCC1)c1ccnn2c(NCC3CC3)cnc12` [Example 44, 3-((Cyclopropylmethyl)amino)-N-(4-morpholinopyridin-3-yl)imidazo[1,2-b]pyridazine-8-carboxamide], the IC50 at GSK3β was determined as 9 nM; on GSK3α it was 1.4 nM; in the assay on pTau, 65 nM.

Turning to `CC1CN(c2ccncc2NC(=O)c2ccnn3cc(-c4ccccc4)nc23)CCO1` (racemic) [Example 14, N-(4-(2-Methylmorpholino)pyridin-3-yl)-2-phenylimidazo[1,2-b]pyridazine-8-carboxamide], the IC50 on GSK3β was determined as 0.75 nM; at GSK3α, 0.4 nM; with pTau, 58 nM.

As for `O=C(Nc1cnccc1N1CCOCC1)c1ccnn2cc(-c3ccccc3)nc12` [Example 13, N-(4-Morpholinopyridin-3-yl)-2-phenylimidazo[1,2-b]pyridazine-8-carboxamide], the IC50 at GSK3β was determined as 0.4 nM; on GSK3α, 0.2 nM; in the assay on pTau, 36 nM.

For `CC(C)Oc1ccncc1NC(=O)c1ccnn2c(NC(=O)C3CCC3)cnc12` [Example 47, 3-(Cyclobutanecarboxamido)-N-(4-isopropoxypyridin-3-yl)imidazo[1,2-b]pyridazine-8-carboxamide], the IC50 on GSK3β was 140 nM; at GSK3α, 110 nM; in the assay with pTau it was 6800 nM.

Regarding `CCOc1ncncc1NC(=O)c1ccnn2cc(-c3ccccc3)nc12` [Example 37, N-(4-Ethoxypyrimidin-5-yl)-2-phenylimidazo[1,2-b]pyridazine-8-carboxamide], the IC50 on GSK3β was 5.3 nM; on GSK3α, 1 nM; in the assay with pTau, 620 nM.

On to `Cc1ccncc1NC(=O)c1ccnn2c(NCC3CC3)cnc12` [Example 40, 3-((Cyclopropylmethyl)amino)-N-(4-methylpyridin-3-yl)imidazo[1,2-b]pyridazine-8-carboxamide], for which the results for the IC50 on GSK3β, at GSK3α and with pTau were 63 nM, 30 nM and 3900 nM, respectively.

Consider `O=C(Nc1cnccc1N1CCC(F)(F)CC1)c1ccnn2ccnc12` [Example 28, N-(4-(4,4-Difluoropiperidin-1-yl)pyridin-3-yl)imidazo[1,2-b]pyridazine-8-carboxamide], for which the IC50 at GSK3β is 4.6 nM; on GSK3α it was 2 nM; in the assay with pTau, 140 nM.

Take `N#Cc1ccc(-c2ccncc2NC(=O)c2ccnn3cc(-c4ccccc4)nc23)cc1` [Example 8, N-(4-(4-Cyanophenyl)pyridin-3-yl)-2-phenylimidazo[1,2-b]pyridazine-8-carboxamide]: the IC50 was determined as 1.1 nM on GSK3β, 0.3 nM at GSK3α and 160 nM in the assay on pTau.

`COc1ccccc1-c1cn2nccc(C(=O)Nc3cnccc3N3CCC(F)(F)CC3)c2n1` [Example 23, N-(4-(4,4-Difluoropiperidin-1-yl)pyridin-3-yl)-2-(2-methoxyphenyl)imidazo[1,2-b]pyridazine-8-carboxamide]: the IC50 at GSK3β turned out to be 0.8 nM; at GSK3α, 0.6 nM; with pTau it was 110 nM.

For `CC1CN(c2ccncc2NC(=O)c2ccnn3cc(-c4ccc(C(F)(F)F)cc4)nc23)CCO1` (stereo not drawn) [Example 26, N-(4-(2-Methylmorpholino)pyridin-3-yl)-2-(4-(trifluoromethyl)phenyl)imidazo[1,2-b]pyridazine-8-carboxamide], the IC50 worked out at 1.4 nM on GSK3β, 0.6 nM on GSK3α and 120 nM with pTau.

For `O=C(Nc1cnccc1OCC(F)(F)F)c1ccnn2cc(-c3ccccc3)nc12` [Example 4, 2-Phenyl-N-(4-(2,2,2-trifluoroethoxy)pyridin-3-yl)imidazo[1,2-b]pyridazine-8-carboxamide], the IC50 at GSK3β came to 0.3 nM; on GSK3α, 0.1 nM; with pTau, 22 nM.

Turning to `O=C(Nc1cnccc1-c1ccccc1)c1ccnn2cc(-c3ccccc3)nc12` [Example 6, 2-Phenyl-N-(4-phenylpyridin-3-yl)imidazo[1,2-b]pyridazine-8-carboxamide], the values for the IC50 on GSK3β, at GSK3α and in the assay on pTau were 3.6 nM, 1.1 nM and 900 nM, respectively.

With `O=C(Nc1cnccc1N1CCC(F)CC1)c1ccnn2cc(-c3ccccc3)nc12` [Example 11, N-(4-(4-Fluoropiperidin-1-yl)pyridin-3-yl)-2-phenylimidazo[1,2-b]pyridazine-8-carboxamide], the IC50 at GSK3β was 0.3 nM; on GSK3α, 0.2 nM; in the assay on pTau, 24 nM.

As to `COc1ccccc1-c1cn2nccc(C(=O)Nc3cnccc3N3CCOC(C)C3)c2n1` (stereo not drawn) [Example 24, 2-(2-Methoxyphenyl)-N-(4-(2-methylmorpholino)pyridin-3-yl)imidazo[1,2-b]pyridazine-8-carboxamide], the IC50 on GSK3β is 0.6 nM; on GSK3α, 0.4 nM; in the assay with pTau, 79 nM.
